According to ChEMBL document CHEMBL4033703, “Novel delta opioid receptor agonists with oxazatricyclodecane structure showing potent agonistic activities” (Bioorg Med Chem Lett, 2017):

Assays:
[1] = target: T1, Delta-type opioid receptor (Homo sapiens, UniProt P41143); test: Agonist activity at human delta opioid receptor expressed in CHO cells assessed as inhibition of forskolin-induced cAMP accumulation after 30 mins by Eu-cAMP tracer based TR-FRET assay relative to SNC80; format: functional, cell-based
T1 sequence (P41143 whole entry): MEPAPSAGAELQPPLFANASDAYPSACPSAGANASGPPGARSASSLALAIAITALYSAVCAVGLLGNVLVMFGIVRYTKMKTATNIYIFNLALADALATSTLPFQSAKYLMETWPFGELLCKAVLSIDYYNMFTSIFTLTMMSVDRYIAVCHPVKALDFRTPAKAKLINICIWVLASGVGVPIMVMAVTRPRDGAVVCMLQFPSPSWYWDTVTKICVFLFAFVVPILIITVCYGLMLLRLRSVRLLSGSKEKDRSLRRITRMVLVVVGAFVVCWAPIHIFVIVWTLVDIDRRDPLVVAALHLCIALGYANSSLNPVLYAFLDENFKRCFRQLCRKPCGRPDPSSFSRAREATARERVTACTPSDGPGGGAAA

[2] = target: T2, Kappa-type opioid receptor (Homo sapiens, UniProt P41145); test: Agonist activity at human kappa opioid receptor expressed in CHO cells assessed as inhibition of forskolin-induced cAMP accumulation at 10 uM after 30 mins by Eu-cAMP tracer based TR-FRET assay relative to U-69,593; format: functional, cell-based
T2 sequence (P41145 whole entry): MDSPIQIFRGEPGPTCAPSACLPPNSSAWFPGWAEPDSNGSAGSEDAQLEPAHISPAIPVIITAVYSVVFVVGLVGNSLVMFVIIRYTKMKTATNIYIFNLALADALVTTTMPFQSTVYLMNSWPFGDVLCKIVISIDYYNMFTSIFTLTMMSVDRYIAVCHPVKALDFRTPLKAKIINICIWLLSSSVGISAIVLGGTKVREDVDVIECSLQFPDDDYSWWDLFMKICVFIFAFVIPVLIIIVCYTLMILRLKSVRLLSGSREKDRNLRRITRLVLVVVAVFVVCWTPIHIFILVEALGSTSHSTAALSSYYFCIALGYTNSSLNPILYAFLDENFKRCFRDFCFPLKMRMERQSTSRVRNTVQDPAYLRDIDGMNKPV

[3] = target: T3, Mu-type opioid receptor (Homo sapiens, UniProt P35372); test: Agonist activity at human mu opioid receptor expressed in CHO cells assessed as inhibition of forskolin-induced cAMP accumulation at 10 uM after 30 mins by Eu-cAMP tracer based TR-FRET assay relative to DAMGO; format: functional, cell-based
T3 sequence (P35372 whole entry): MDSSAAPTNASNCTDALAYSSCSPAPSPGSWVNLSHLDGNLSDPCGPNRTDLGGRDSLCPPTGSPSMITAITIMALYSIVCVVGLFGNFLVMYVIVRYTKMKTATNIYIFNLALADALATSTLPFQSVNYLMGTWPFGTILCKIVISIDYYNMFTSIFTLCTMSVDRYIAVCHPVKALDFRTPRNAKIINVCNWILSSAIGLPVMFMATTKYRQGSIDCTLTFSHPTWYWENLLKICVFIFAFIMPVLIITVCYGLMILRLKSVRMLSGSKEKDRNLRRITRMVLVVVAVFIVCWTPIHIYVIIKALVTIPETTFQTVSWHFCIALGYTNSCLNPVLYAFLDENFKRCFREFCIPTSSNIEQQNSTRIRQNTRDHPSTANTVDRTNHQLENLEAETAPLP

[4] = target: T1, Delta-type opioid receptor; test: Agonist activity at human delta opioid receptor expressed in CHO cells assessed as inhibition of forskolin-induced cAMP accumulation after 30 mins by Eu-cAMP tracer based TR-FRET assay; format: functional, cell-based
[5] = target: T3, Mu-type opioid receptor; test: Displacement of [3H]DAMGO from human mu opioid receptor expressed in CHO cells; format: cell-based
[6] = target: T1, Delta-type opioid receptor; test: Displacement of [3H]DPDPE from human delta opioid receptor expressed in CHO cells; format: cell-based
[7] = target: T2, Kappa-type opioid receptor; test: Displacement of [3H]U-69,593 from human kappa opioid receptor expressed in CHO cells; format: cell-based
[8] = target: T2, Kappa-type opioid receptor; test: Agonist activity at human kappa opioid receptor expressed in CHO cells assessed as inhibition of forskolin-induced cAMP accumulation after 30 mins by Eu-cAMP tracer based TR-FRET assay relative to U-69,593; format: functional, cell-based
[9] = target: Kappa-type opioid receptor (Cavia porcellus, UniProt P41144); test: Displacement of [3H]U-69,593 from kappa opioid receptor in guinea pig cerebellum membrane; format: cell membranes
Sequence of Kappa-type opioid receptor (Cavia porcellus, UniProt P41144) (P41144 whole entry): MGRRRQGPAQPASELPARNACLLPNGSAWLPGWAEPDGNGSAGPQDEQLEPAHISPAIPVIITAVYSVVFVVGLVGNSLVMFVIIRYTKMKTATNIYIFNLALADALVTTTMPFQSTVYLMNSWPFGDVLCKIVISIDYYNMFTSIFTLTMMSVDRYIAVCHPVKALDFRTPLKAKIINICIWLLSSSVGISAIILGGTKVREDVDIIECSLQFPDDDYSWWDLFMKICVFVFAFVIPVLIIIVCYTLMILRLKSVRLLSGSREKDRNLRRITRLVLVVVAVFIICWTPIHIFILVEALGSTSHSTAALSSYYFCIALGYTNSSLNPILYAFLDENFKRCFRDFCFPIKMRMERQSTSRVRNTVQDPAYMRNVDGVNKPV

[10] = target: Delta-type opioid receptor (Mus musculus, UniProt P32300); test: Displacement of [3H]DPDPE from delta opioid receptor in mouse whole brain without cerebellum membrane
Sequence of Delta-type opioid receptor (Mus musculus, UniProt P32300) (P32300 whole entry): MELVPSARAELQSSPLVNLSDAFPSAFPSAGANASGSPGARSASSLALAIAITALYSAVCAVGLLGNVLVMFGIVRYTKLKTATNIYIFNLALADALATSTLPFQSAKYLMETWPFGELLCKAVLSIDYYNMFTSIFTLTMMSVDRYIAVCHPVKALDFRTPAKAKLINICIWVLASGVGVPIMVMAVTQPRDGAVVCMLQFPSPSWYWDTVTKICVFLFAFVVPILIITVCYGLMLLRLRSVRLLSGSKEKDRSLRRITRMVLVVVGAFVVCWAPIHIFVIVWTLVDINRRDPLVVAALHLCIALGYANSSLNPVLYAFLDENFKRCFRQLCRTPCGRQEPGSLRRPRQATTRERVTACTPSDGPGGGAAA

[11] = target: T3, Mu-type opioid receptor; test: Agonist activity at human mu opioid receptor expressed in CHO cells assessed as inhibition of forskolin-induced cAMP accumulation after 30 mins by Eu-cAMP tracer based TR-FRET assay; format: functional, cell-based
[12] = organism: Mus musculus; test: Selectivity ratio of Ki for mu opioid receptor in mouse whole brain without cerebellum to Ki for delta opioid receptor in mouse whole brain without cerebellum
[13] = Selectivity ratio of Ki for kappa opioid receptor in guinea pig cerebellum membrane to Ki for delta opioid receptor in mouse whole brain without cerebellum; format: cell membranes
[14] = target: T2, Kappa-type opioid receptor; test: Agonist activity at human kappa opioid receptor expressed in CHO cells assessed as inhibition of forskolin-induced cAMP accumulation after 30 mins by Eu-cAMP tracer based TR-FRET assay; format: functional, cell-based
[15] = target: T3, Mu-type opioid receptor; test: Agonist activity at human mu opioid receptor expressed in CHO cells assessed as inhibition of forskolin-induced cAMP accumulation after 30 mins by Eu-cAMP tracer based TR-FRET assay relative to DAMGO; format: functional, cell-based
[16] = target: Mu-type opioid receptor (Mus musculus, UniProt P42866); test: Displacement of [3H]DAMGO from mu opioid receptor in mouse whole brain without cerebellum membrane
Sequence of Mu-type opioid receptor (Mus musculus, UniProt P42866) (P42866 whole entry): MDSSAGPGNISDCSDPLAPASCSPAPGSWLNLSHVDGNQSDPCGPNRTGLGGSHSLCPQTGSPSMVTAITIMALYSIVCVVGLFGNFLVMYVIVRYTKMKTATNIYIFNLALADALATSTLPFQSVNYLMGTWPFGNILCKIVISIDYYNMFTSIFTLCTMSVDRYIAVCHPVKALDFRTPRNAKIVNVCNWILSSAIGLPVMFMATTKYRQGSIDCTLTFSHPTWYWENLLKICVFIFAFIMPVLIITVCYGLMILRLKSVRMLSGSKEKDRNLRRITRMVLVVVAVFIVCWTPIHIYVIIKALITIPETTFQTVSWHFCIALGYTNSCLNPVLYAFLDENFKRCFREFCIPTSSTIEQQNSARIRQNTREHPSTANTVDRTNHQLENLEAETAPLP

| Compound | Emax [1] [%] | Emax [2] [%] | Emax [3] [%] | ED50 [4] [nM] | Ki [5] [nM] | EC50 [4] [nM] | Ki [6] [nM] | Ki [7] [nM] | Emax [8] [%] | Ki [9] [nM] | Ki [10] [nM] | EC50 [11] [nM] | Ratio Ki [12] | Ratio Ki [13] | EC50 [14] [nM] | Emax [15] [%] | Ki [16] [nM] |
| --- | --- | --- | --- | --- | --- | --- | --- | --- | --- | --- | --- | --- | --- | --- | --- | --- | --- |
| COCCCN1CC[C@]23Cc4nc5ccccc5cc4C[C@@]2(O)[C@H]1Cc1ccc(O)cc13 | 95 | 14 | 25 | 0.46 | – | – | – | – | – | – | – | – | – | – | – | – | – |
| Oc1ccc2c(c1)C13CCN(CC4CC4)C(C2)C12CCC1C3[C@@H](CN1Cc1ccccc1)O2 (some centres not stated) | 79 | 12 | 4.2 | – | 1.56 | 0.67 | 0.501 | 1.38 | – | – | – | – | – | – | – | – | – |
| CN1CCC23c4cc(O)ccc4CC1C21CCC2C3[C@@H](CN2C(=O)c2ccccc2)O1 (some centres not stated) | 94 | – | – | – | – | 0.43 | – | – | 96 | 31.3 | 0.301 | 5.9 | 1.3 | 104 | 50 | 103 | 0.383 |
| CC(C)CN1CCC23c4cc(O)ccc4CC1C21CCC2C3[C@@H](CN2C(=O)c2ccccc2)O1 (some centres not stated) | 99 | – | 15 | – | – | 3 | – | – | 19 | 6.25 | 0.76 | – | 5.9 | 8.2 | 98 | – | 4.48 |
| C=CCN1CCC23c4cc(O)ccc4CC1C21CCC2C3[C@@H](CN2C(=O)c2ccccc2)O1 (some centres not stated) | 73 | 4.2 | 2.2 | – | – | 0.43 | – | – | – | 2.54 | 0.109 | – | 7.6 | 23 | – | – | 0.833 |
| O=C(c1ccccc1)N1C[C@H]2OC34CCC1C2C31CCN(CCc2ccccc2)C4Cc2ccc(O)cc21 (some centres not stated) | 100 | – | – | – | – | 0.61 | – | – | 56 | 34.1 | 0.458 | 5.3 | 1.2 | 74 | 404 | 109 | 0.548 |
| COCCCN1CCC23c4cc(O)ccc4CC1C21CCC2C3[C@@H](CN2C(=O)c2ccccc2)O1 (some centres not stated) | 120 | 23 | – | – | – | 1.4 | – | – | – | 20.3 | 0.368 | 22 | 11 | 55 | – | 55 | 3.94 |
| O=S(=O)(c1ccccc1)N1C[C@H]2OC34CCC1C2C31CCN(CC2CC2)C4Cc2ccc(O)cc21 (some centres not stated) | 66 | 19 | – | – | 0.308 | 1.2 | 0.221 | 0.658 | – | – | – | 2.5 | – | – | – | 54 | – |
| O=C(c1ccccc1)N1C[C@H]2OC34CCC1C2C31CCN(CC2CC2)C4Cc2ccc(O)cc21 (some centres not stated) | 96 | 2.9 | 3.9 | – | 0.627 | 0.54 | 0.154 | 1.05 | – | 1.21 | 0.274 | – | 1.2 | 4.4 | – | – | 0.325 |
